For this assay, the system named is ET (Huh-lucubineo-ET) cell line harboring I389luc-ubi-neo/NS3-3′/ET HCV replicon. In words: Replicon assay (HCV replicon, luciferase readout). It counts as cell-based. The settings on record: Hepatitis C virus. On the procedure: A cell line, ET (Huh-lucubineo-ET) is used for screening of compounds for inhibiting HCV RNA dependent RNA polymerase. The ET cell line is stably transfected with RNA transcripts harboring a I389luc-ubi-neo/NS3-3′/ET; replicon with firefly luciferase-ubiquitin-neomycin phosphotransferase fusion protein and EMCV-IRES driven NS3-5B polyprotein containing the cell culture adaptive mutations (E1202G; T1280I; K1846T) (Krieger at al, 2001 and unpublished). The ET cells are grown in DMEM (Dulbeco's Modified Eagle's Medium), supplemented with 10% fetal calf serum, 2 mM Glutamine, Penicillin (100 IU/mL)/Streptomycin (100 μg/mL), 1× nonessential amino acids, and 250 μg/mL G418 (“Geneticin”). They are all available through Life Technologies (Bethesda, Md.). The cells are plated at 0.5−1.0×10^4 cells/well in the 96 well plates and incubated for 24 hrs before adding test compound. The compounds are added to the cells to achieve a final concentration of 0.1 nM to […] and a final DMSO (dimethylsulfoxide) concentration of 0.5%. Luciferase activity is measured 48-72 hours later by adding a lysis buffer and the substrate (Catalog number Glo-lysis buffer E2661 and Bright-Glo luciferase system E2620 Promega, Madison, Wis.). Cells should not be too confluent during the assay. Percent inhibition of replication data is plotted relative to no compound control. Under the same condition, cytotoxicity of the compounds are determined using cell proliferation reagent, WST-1 (Roche, Germany). The compounds showing antiviral activities, but no significant cytotoxicities are chosen to determine EC50 and TC50. For these determinations, a 10 point, 2-fold serial dilution for each compound was used, which spans a concentration range of 1000 fold. EC50 and similarly TC50 values were calculated by fitting % inhibition at each concentration to the following equation:
% inhibition=100%/[(EC50/[I])^b+1]
where b is Hill's coefficient.

What is called EC50 is the concentration that produces a half-maximal response. Turning to `O=C(c1nc2c(C(F)(F)F)cc(C3=CCCC3)cn2c1Cl)N1CC=C(c2nccs2)C1` [Compound 150, (3-Chloro-6-cyclopent-1-enyl-8-trifluoromethyl-imidazo[1,2-a]pyridin-2-yl)-(3-thiazol-2-yl-2,5-dihydro-pyrrol-1-yl)-methanone], the EC50 is 6.86 nM.
`O=C(c1nc2c(C(F)(F)F)cc(C3=CCCC3)cn2c1Cl)N1CC=C(c2ncccc2F)CC1` [Compound 151, (3-Chloro-6-cyclopent-1-enyl-8-trifluoromethyl-imidazo[1,2-a]pyridin-2-yl)-(3-fluoro-3′,6′-dihydro-2′H-[2,4′]bipyridinyl-1′-yl)-methanone]: the EC50 came out at 734 nM.
The same measure for `O=C(c1nc2c(C(F)(F)F)cc(-c3ccoc3)cn2c1Cl)N1CCC(NCC2CC2)CC1` [Compound 152, (3-Chloro-6-furan-3-yl-8-trifluoromethyl-imidazo[1,2-a]pyridin-2-yl)-[4-(cyclopropylmethyl-amino)-piperidin-1-yl]-methanone]: 19000 nM; for `COC(=O)C(NC(=O)c1cn2cc(-c3ccoc3)cc(C(F)(F)F)c2n1)C(C)(C)C` (stereo not shown) [Compound 154, 2-[(6-Furan-3-yl-8-trifluoromethyl-imidazo[1,2-a]pyridine-2-carbonyl)-amino]-3,3-dimethyl-butyric acid methyl ester]: 27700 nM; for `COC(=O)C(Cc1cnc[nH]1)NC(=O)c1cn2cc(-c3ccoc3)cc(C(F)(F)F)c2n1` (stereo not shown) [Compound 155, 2-[(6-Furan-3-yl-8-trifluoromethyl-imidazo[1,2-a]pyridine-2-carbonyl)-amino]-3-(3H-imidazol-4-yl)-propionic acid methyl ester]: 44500 nM.
The result for `COC(=O)C(CC(C)C)NC(=O)c1cn2cc(-c3ccoc3)cc(C(F)(F)F)c2n1` (stereo not shown) [Compound 156, 2-[(6-Furan-3-yl-8-trifluoromethyl-imidazo[1,2-a]pyridine-2-carbonyl)-amino]-4-methyl-pentanoic acid methyl ester] reads 46800 nM; that for `COC(=O)C(Cc1ccccc1)NC(=O)c1cn2cc(-c3ccoc3)cc(C(F)(F)F)c2n1` (stereo not shown) [Compound 157, 2-[(6-Furan-3-yl-8-trifluoromethyl-imidazo[1,2-a]pyridine-2-carbonyl)-amino]-3-phenyl-propionic acid methyl ester], > 50000 nM.
The same measure for `CC(C)CCOC1CCN(C(=O)c2nc3c(C(F)(F)F)cc(-c4ccoc4)cn3c2Cl)CC1` [Compound 158, (3-Chloro-6-furan-3-yl-8-trifluoromethyl-imidazo[1,2-a]pyridin-2-yl)-[4-(3-methyl-butoxy)-piperidin-1-yl]-methanone]: 8110 nM; for `O=C1CCC=C1C1=CCN(C(=O)c2nc3c(C(F)(F)F)cc(-c4ccoc4)cn3c2Cl)CC1` [Compound 159, 2-[1-(3-Chloro-6-furan-3-yl-8-trifluoromethyl-imidazo[1,2-a]pyridine-2-carbonyl)-1,2,3,6-tetrahydro-pyridin-4-yl]-cyclopent-2-enone]: 248 nM; for `O=C(c1nc2c(C(F)(F)F)cc(-c3ccoc3)cn2c1Cl)N1CC[C@@H](NC(=O)C(F)(F)F)C1` [Compound 162, N-[1-(3-Chloro-6-furan-3-yl-8-trifluoromethyl-imidazo[1,2-a]pyridine-2-carbonyl)-pyrrohdin-3-yl]-2,2,2-trifluoro-acetamide]: 43500 nM.
Compound `FC(F)(F)c1cc(-c2ccoc2)cn2cc(CN3CC=C(c4nccs4)C3)nc12` [Compound 163, 6-Furan-3-yl-2-(3-thiazol-2-yl-2,5-dihydro-pyrrol-1-ylmethyl)-8-trifluoromethyl-imidazo[1,2-a]pyridine] yielded an EC50 of 42400 nM.
With `C=CC(=O)N[C@@H]1CCN(C(=O)c2nc3c(C(F)(F)F)cc(-c4ccoc4)cn3c2Cl)C1` [Compound 167, N-[1-(3-Chloro-6-furan-3-yl-8-trifluoromethyl-imidazo[1,2-a]pyridine-2-carbonyl)-pyrrolidin-3-yl]-acrylamide], the midpoint of the response, the EC50, lay at 1680 nM. Against the preceding compound, the EC50 is about 25-fold lower.
The result for `N#Cc1c(-c2ccoc2)cc(C(F)F)c2nc(C(=O)N3CC=C(c4nccs4)C3)c(Cl)n12` [Compound 169, 3-Chloro-8-difluoromethyl-6-furan-3-yl-2-(3-thiazol-2-yl-2,5-dihydro-pyrrole-1-carbonyl)-imidazo[1,2-a]pyridine-5-carbonitrile] reads 280 nM; that for `O=C(c1nc2c(C(F)(F)F)cc(-c3ccoc3)cn2c1CO)N1CC=C(c2nccs2)C1` [Compound 170, (6-Furan-3-yl-3-hydroxymethyl-8-trifluoromethyl-imidazo[1,2-a]pyridin-2-yl)-(3-thiazol-2-yl-2,5-dihydro-pyrrol-1-yl) methanone], 26 nM.
The result for `O=C(c1nc2c(C(F)(F)F)cc(-c3ccoc3)cn2c1CO)N1CC=C(c2ncccc2F)CC1` [Compound 171, (3-Fluoro-3′,6′-dihydro-2′H-[2,4′]bipyridinyl-1′-yl)-(6-furan-3-yl-3-hydroxymethyl-8-trifluoromethyl-imidazo[1,2-a]pyridin-2-yl)-methanone] reads 1410 nM; that for `CC(O)c1c(C(=O)N2CC=C(c3ncccc3F)CC2)nc2c(C(F)(F)F)cc(-c3ccoc3)cn12` (stereo not shown) [Compound 172, (3-Fluoro-3′,6′-dihydro-2′H-[2,4′]bipyridinyl-1′-yl)-[6-furan-3-yl-3-(1-hydroxy-ethyl)-8-trifluoromethyl-imidazo[1,2-a]pyridin-2-yl]-methanone], 3110 nM.
Regarding `O=C(c1nc2c(C(F)(F)F)cc(-c3cn[nH]c3)cn2c1CO)N1CC=C(c2nccs2)C1` [Compound 173, [3-Hydroxymethyl-6-(1H-pyrazol-4-yl)-8-trifluoromethyl-imidazo[1,2-a]pyridin-2-yl]-(3-thiazol-2-yl-2,5-dihydro-pyrrol-1-yl)-methanone], the concentration for a half-maximal effect (EC50) turned out to be 444 nM.
The result for `O=C(c1nc2c(C(F)(F)F)cc(-c3cn[nH]c3)cn2c1Cl)N1CCC(OCC2CC2)CC1` [Compound 174, [3-Chloro-6-(1H-pyrazol-4-yl)-8-trifluoromethyl-imidazo[1,2-a]pyridin-2-yl]-(4-cyclopropylmethoxy-piperidin-1-yl)-methanone] reads 310 nM; that for `O=C(c1nc2c(C(F)(F)F)cc(-c3ccoc3)cn2c1Cl)N1CCC(OCC2CC2)CC1` [Compound 175, (3-Chloro-6-furan-3-yl-8-trifluoromethyl-imidazo[1,2-a]pyridin-2-yl)-(4-cyclopropylmethoxy-piperidin-1-yl)-methanone], 790 nM.
The result for `CCCOC1CCN(C(=O)c2nc3c(C(F)(F)F)cc(-c4cn[nH]c4)cn3c2Cl)CC1` [Compound 176, [3-Chloro-6-(1H-pyrazol-4-yl)-8-trifluoromethyl-imidazo[1,2-a]pyridin-2-yl]-(4-propoxy-piperidin-1-yl)-methanone] reads 883 nM; that for `CCOC1CCN(C(=O)c2nc3c(C(F)(F)F)cc(-c4cn[nH]c4)cn3c2Cl)CC1` [Compound 177, [3-Chloro-6-(1H-pyrazol-4-yl)-8-trifluoromethyl-imidazo[1,2-a]pyridin-2-yl]-(4-ethoxy-piperidin-1-yl)-methanone], 1080 nM.
The result for `COc1cccc(NC2CCN(C(=O)c3nc4c(C(F)(F)F)cc(-c5ccoc5)cn4c3Cl)C2)c1` (stereo not shown) [Compound 178, (3-Chloro-6-furan-3-yl-8-trifluoromethyl-imidazo[1,2-a]pyridin-2-yl)-[3-(3-methoxy-phenylamino)-pyrrolidin-1-yl]-methanone] reads 2400 nM.

For the origin of these results see patent publication US20100204265A1 (priority 2009, published 2010).
